Values of other authors as cited in US11779563B2, “Oral cannabinoid pharmaceutical compositions and methods of treating sleep disorders” (Curio IP, LLC, priority 2021, dated 2023).

Conditions: following smoking of the equivalent of 10-15 mg over 5-7 minutes

CCCCCc1cc(O)c2c(c1)OC(C)(C)[C@@H]1CCC(C)=C[C@@H]21 [THC, (−)-(6aR,10aR)-6,6,9-trimethyl-3-pentyl-6a,7,8,10a-tetrahydro-6H-benzo[c]chromen-1-ol]
peak plasma levels: around 100 μg/L
